Tests used:
[1] = test system: Aspergillus fumigatus; assay: Antifungal activity against Aspergillus fumigatus; format: functional
[2] = test system: Candida tropicalis; assay: Antifungal activity against Candida tropicalis; format: functional
[3] = test system: Erysipelothrix rhusiopathiae; assay: Antibacterial activity against Erysipelothrix insidiosa; format: functional
[4] = test system: Microsporum canis; assay: Antifungal activity against Microsporum canis; format: functional
[5] = test system: Mucor; assay: Antifungal activity against Mucor species; format: functional
[6] = test system: Phialophora verrucosa; assay: Antifungal activity against Phialophora verrucosa; format: functional
[7] = test system: Saprolegnia; assay: Antifungal activity against Saprolegnia species; format: functional
[8] = test system: Sporothrix schenckii; assay: Antifungal activity against Sporothrix schenck ii; format: functional
[9] = test system: Streptococcus pyogenes; assay: Antibacterial activity against Streptococcus pyogenes; format: functional
[10] = test system: Staphylococcus haemolyticus; assay: Antibacterial against Staphylococcus hemolyticus; format: functional
[11] = test system: Trichophyton benhamiae; assay: Antifungal activity against Trichophyton mentagrophytes; format: functional, trychophyton mentagrophytes
[12] = Ratio of animals cured to that of animals infected, tested in vivo for antifungal activity against cutaneous candidosis in guinea pig; 1/2; format: functional
[13] = test system: Trichophyton rubrum; assay: Antifungal activity against Trichophyton rubrum; format: functional
[14] = test system: Cryptococcus neoformans; assay: Antifungal activity against Cryptococcus neoformans; format: functional
[15] = test system: Candida albicans; assay: Antifungal activity against Candida albicans; format: functional
[16] = Ratio of animals cured to that of animals infected, tested in vivo for antifungal activity against vaginal candidosis in rat; 2/2
[17] = Ratio of animals cured to that of animals […], Tested in vivo for antifungal activity against vaginal candidosis in rat; 0/2; format: functional
[18] = Ratio of animals cured to that of animals infected, tested in vivo for antifungal activity against cutaneous candidosis in guinea pig; 2/2; format: functional; also: test concentration or dose not given here
[19] = Ratio of animals cured to that of animals infected, tested in vivo for antifungal activity against vaginal candidosis in rat; 0/2; also: test concentration or dose not given here
[20] = Ratio of animals cured to that of animals infected, tested in vivo for antifungal activity against cutaneous candidosis in guinea pig; 0/2; format: functional; also: test concentration or dose not given here
[21] = Ratio of animals cured to that of animals […], Tested in vivo for antifungal activity against vaginal candidosis in rat; 1/2; format: functional

Row | Structure (SMILES) | Inhibition [1] [µg/mL] | Inhibition [2] [µg/mL] | Inhibition [3] [µg/mL] | Inhibition [4] [µg/mL] | Inhibition [5] [µg/mL] | Inhibition [6] [µg/mL] | Inhibition [7] [µg/mL] | Inhibition [8] [µg/mL] | Inhibition [9] [µg/mL] | Inhibition [10] [µg/mL] | Inhibition [11] [µg/mL] | Inhibition [13] [µg/mL] | Inhibition [14] [µg/mL] | Inhibition [15] [µg/mL] | Ratio [17] | other results
1 | Clc1ccc(C2COC(Cn3ccnc3)(c3ccc(Cl)cc3Cl)O2)cc1 (centres undefined) | <1 | 10 | 1 | <1 | 10 | 100 | 100 | 10 | 1 | 10 | <1 | <1 | <1 | 100 | – | Ratio [12]: 1
2 | Clc1ccc(C2COC(Cn3ccnc3)(c3ccc(Cl)cc3Cl)O2)c(Cl)c1 (centres undefined) | <1 | >100 | <1 | 10 | 10 | 100 | 100 | 10 | <1 | 10 | <1 | <1 | <1 | >100 | – | Ratio [16]: 2
3 | Cc1ccc(C2COC(Cn3ccnc3)(c3ccc(Cl)cc3)O2)cc1 (centres undefined) | <1 | >100 | <1 | <1 | 100 | 100 | 100 | 10 | <1 | 100 | <1 | <1 | <1 | 100 | 0 | –
4 | Fc1ccc(C2COC(Cn3ccnc3)(c3ccc(Cl)cc3)O2)cc1 (centres undefined) | <1 | 100 | 100 | <1 | 10 | 100 | 100 | 10 | 10 | >100 | <1 | <1 | 10 | 100 | 0 | Ratio [18]: 1
5 | Clc1ccc(C2(Cn3ccnc3)OCC(Cc3ccc(-c4ccccc4)cc3)O2)c(Cl)c1 (centres undefined) | 10 | >100 | 1 | 10 | >100 | >100 | 100 | 100 | 1 | 10 | <1 | <1 | 100 | >100 | 0 | –
6 | Clc1ccc(CC2COC(Cn3ccnc3)(c3ccc(Cl)cc3Cl)O2)cc1 (centres undefined) | 10 | 10 | <1 | <1 | 10 | 100 | 100 | 10 | 100 | 10 | <1 | <1 | 1 | 10 | – | Ratio [18]: 2; Ratio [19]: 0
7 | Clc1ccc(C2(Cn3ccnc3)OCC(c3ccccc3)O2)c(Cl)c1 (centres undefined) | <1 | >100 | 10 | <1 | 100 | 100 | 100 | 10 | 10 | >100 | <1 | <1 | 100 | 100 | 0 | –
8 | COc1ccc(CC2COC(Cn3ccnc3)(c3ccc(Cl)cc3Cl)O2)cc1 (centres undefined) | – | – | – | <1 | – | 10 | 10 | – | <1 | 100 | <1 | – | – | – | 0 | –
9 | Clc1ccc(C2(Cn3ccnc3)OCC(c3ccc(Br)cc3)O2)cc1 (centres undefined) | <1 | 10 | <1 | <1 | 10 | 100 | <1 | 10 | <1 | 10 | <1 | <1 | <1 | 10 | – | Ratio [20]: 0; Ratio [16]: 2
10 | Brc1ccc(C2COC(Cn3ccnc3)(c3ccc(Br)cc3)O2)cc1 (centres undefined) | <1 | 100 | <1 | <1 | 10 | 100 | 100 | 10 | <1 | 10 | <1 | <1 | <1 | >100 | – | Ratio [20]: 0; Ratio [19]: 0
11 | Cc1ccc(CC2COC(Cn3ccnc3)(c3ccc(Cl)cc3Cl)O2)cc1 (centres undefined) | 10 | >100 | <1 | <1 | 10 | 100 | 10 | 10 | <1 | <1 | <1 | <1 | <1 | 10 | 0 | –
12 | Fc1ccc(CC2COC(Cn3ccnc3)(c3ccc(Cl)cc3Cl)O2)cc1 (centres undefined) | 10 | 100 | <1 | <1 | <1 | 100 | 10 | 10 | 10 | 10 | <1 | <1 | 10 | 100 | 0 | –
13 | Clc1ccc(C2(Cn3ccnc3)OCC(CCc3ccc(-c4ccccc4)cc3)O2)c(Cl)c1 (centres undefined) | 10 | >100 | <1 | <1 | >100 | >100 | 10 | 10 | <1 | 100 | <1 | <1 | 10 | >100 | 0 | –
14 | Clc1ccc(C2(Cn3ccnc3)OCC(Cc3ccccc3)O2)c(Cl)c1 (centres undefined) | <1 | 10 | <1 | <1 | 10 | 100 | 10 | 10 | 10 | 10 | <1 | <1 | <1 | 100 | 0 | Ratio [18]: 2
15 | Cc1ccc(C2(Cn3ccnc3)OCC(c3ccccc3Cl)O2)cc1 (centres undefined) | 100 | >100 | 1 | 10 | 100 | 100 | 100 | 10 | <1 | 100 | <1 | <1 | 100 | 100 | – | Ratio [21]: 0.5; Ratio [20]: 0
16 | Clc1ccccc1C1COC(Cn2ccnc2)(c2ccc(Br)cc2)O1 (centres undefined) | 100 | >100 | <1 | <1 | 10 | 100 | 100 | 10 | 10 | 100 | <1 | <1 | <1 | 100 | – | Ratio [20]: 0; Ratio [19]: 0
